Bounds are passed on as bounds.

The subject of one data set is HBV. Nature of the data set: HepAD38 anti-HBV assay: reduction of viral product accumulation (virion DNA qPCR, HBsAg/HBeAg ELISA). It counts as cell-based. The following applies: Hepatitis B virus, 120 h; HepAD38 cells; concentration reducing viral product accumulation by 50% relative to no drug controls; harvest five days after compound addition; read-out: HepAD38 EC50. The essentials:
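Tetracycline-free HepAD38 cells treated 5 days with compound (1:200 DMSO dilution), or 8 days with media and compound refreshed on d2 and d5. Virion DNA quantified by qPCR; HBsAg or HBeAg by ELISA. EC50 is the concentration reducing viral product accumulation 50% versus no-drug controls.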

Data set [1] in a line: Compound toxicity, ATPLite total ATP levels. The following applies: human, HepG2 cells; concentration reducing total ATP levels by 50% relative to no drug controls; ATPLite three days after compound addition. It counts as cell-based. As to the method: Compound toxicity is evaluated by seeding cells at 15,000 cells/well and treating with compound as described above.
Background: ATP-based viability assays read luminescence as a measure of living cells.

Regarding `O=S(=O)(N[C@H]1CC2=C(c3ccn(C(F)F)n3)[C@H](c3ccc(F)cc3Cl)N=C(c3nccs3)N2C1)[C@H]1C[C@H](O)C1` [Example 370], the half-maximal effective concentration (EC50) in the data set on HBV was below 0.1 µM. In data set [1], this compound came in with a CC50 at 3 days above 25 µM.
Taken in the same sequence, the figures for `O=S(=O)(N[C@H]1CC2=C(c3ccn(C(F)F)n3)[C@H](c3ccc(F)cc3Cl)N=C(c3nccs3)N2C1)c1ncc[nH]1` [Example 362] were below 0.1 µM and above 25 µM.
Taken in the same sequence, the figures for `O=S(=O)(N[C@H]1CC2=C(c3ccn(C(F)F)n3)[C@H](c3ccc(F)cc3Cl)N=C(c3nccs3)N2C1)c1ccc([C@H]2CC[C@H](O)CC2)cc1` [Example 381] were below 0.1 µM and 10 to 25 µM.
Taken in the same sequence, the figures for `O=C1CCC(S(=O)(=O)N[C@H]2CC3=C(c4ccn(C(F)F)n4)[C@H](c4ccc(F)cc4Cl)N=C(c4nccs4)N3C2)CC1` [Example 97] were below 0.1 µM and above 25 µM.

By EC50 is commonly meant the concentration at which the effect is half-maximal. One may read the CC50 as the concentration giving 50% cytotoxicity. Read a high CC50 as lower toxicity to the cells.

Source of the values: patent US11472808B2, “Substituted pyrrolo[1,2-c]pyrimidines as hepatitis B antiviral agents” (Enanta Pharmaceuticals, Inc., priority 2019, dated 2022).
